According to patent US20140296146A1, “Thermostable Inhibitors of Activation of the Blood Clotting System Through Contact with Foreign Surfaces” (Synapse B.V., priority 2011, published 2014):
Where two headings read alike, the source gives them in different places. Where a SMILES comes first, the peptide text is derived from it. Bridges are numbered along the chain shown (N, C = ends).

Tests used:
h-FXIIa [1] = biological target: T1, h-FXIIa (Homo sapiens, UniProt P00748); assay: Effect of inhibitors on hydrolysis of S2302 by h-FXIIa; type: biochemical
T1 construct: purchased Enzyme Research Laboratories FXIIa 1212A
T1 sequence (P00748 373-615 limits assumed): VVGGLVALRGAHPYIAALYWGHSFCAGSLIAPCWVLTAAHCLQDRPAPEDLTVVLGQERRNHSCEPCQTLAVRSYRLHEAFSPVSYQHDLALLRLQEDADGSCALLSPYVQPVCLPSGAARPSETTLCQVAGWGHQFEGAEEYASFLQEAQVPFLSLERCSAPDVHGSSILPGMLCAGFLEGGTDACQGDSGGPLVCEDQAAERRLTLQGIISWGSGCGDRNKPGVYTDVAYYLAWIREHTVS
T1 sequence (P00748 20-372 partner limits assumed): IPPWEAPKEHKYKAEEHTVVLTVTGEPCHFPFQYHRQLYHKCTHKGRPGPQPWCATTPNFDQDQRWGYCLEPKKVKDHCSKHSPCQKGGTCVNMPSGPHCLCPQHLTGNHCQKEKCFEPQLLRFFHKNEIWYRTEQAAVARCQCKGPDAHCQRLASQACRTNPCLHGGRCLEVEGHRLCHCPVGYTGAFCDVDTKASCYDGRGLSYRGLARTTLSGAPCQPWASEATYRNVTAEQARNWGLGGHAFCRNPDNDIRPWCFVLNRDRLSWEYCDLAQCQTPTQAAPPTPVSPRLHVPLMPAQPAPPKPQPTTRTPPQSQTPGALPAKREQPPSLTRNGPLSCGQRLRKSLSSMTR
Protocol: (§1) Materials • S2302 From Chromogenic, lot # N0398718 SEQ0860, exp. date 2012-07. Water added on 7 Oct. […] On 3 Aug. […] Product code FXIIa 1212A, lot #FXIIa 2520PL. Bottle with 0.5 mg was reconstituted with 370 μl pure water. […] Buffer 4 mM NaAc, 150 mM NaCl (pH 5.3). Preparation was divided into 20 μl amounts and frozen at −80° C. • Hepes735 140 mM NaCl, 20 mM Hepes, 0.02% NaN3 (pH 7.35). • BSA5 Hepes735+5 mg/ml BSA. • CTI Prepared on 17 Dec. 2004, 0.141 mg/ml, i.e. 0.141/12028=11.7*10^−6 M (11.7 μM). One portion was thawed and divided into 3 parts. Part 1 was frozen at −80° C.; part 2 was kept at RT; and part 3 was incubated 30 min at 95° C. and then kept at RT.
(§2) Stock FXIIa was diluted 700× in BSA5. The inhibitor was diluted in BSA5 as indicated. Wells contained 70 μl diluted FXIIa (5 nM final), 70 μl inhibitor and 20 μl S2302 (475 or 462.5 μM final). The reaction was started after 5 min heating on the heating plate with S2302. Filters 405 nm and 490 nm reference. Found mΔA/min was multiplied by 2.14 to get the figure for a 1 cm path.
The residual activity (V) was fitted against the PTI concentration with equation:
(§3) V=(E+(sqrt(Ê2+2*E*(Ki−I)+Î2+2*I*Ki+Kî2)−E−I−Ki)/2)*kcat*S/(Km+S)
(§4) in which E=[FXIIa], Ki is the dissociation constant, I=[Inhibitor], kcat and Km are Michaelis constants and S=[S2302].

h-FXIIa [2] = biological target: T1, h-FXIIa; assay: Stability of CTI, PTI and TICA at RT and at 95° C., read as inhibition of h-FXIIa; type: physicochemical
Protocol: as §1, with “Part 1 was frozen at −80° C.; part 2 was kept at RT; and part 3 was incubated 30 min at 95° C. and then kept at RT.” left out
as §2, with “ΔmA/min” for “mΔA/min”
The residual activity (V) was fitted against the inhibitor concentration with equation:
as §3, §4
To calculate the concentration of I the equation I=x·(x−E−Ki)/(x−E) was used. In this equation is I the calculated inhibitor concentration, x=the residual activity of FXIIa (free FXIIa), E the total FXIIa concentration (=9.33 nM), and Ki the dissociation or inhibitor constant.

[3] = Ki, Table 2, inhibitory activity of different polypeptides
[4] = ki F.XIIa (ng/ml), Before heating

| SMILES | Ki (h-FXIIa [1]; [3]) | Ki (h-FXIIa [1]; [4]) | Res. Act. (%) (h-FXIIa [2]; inhibitor 30 min 95° C.) | Res. Act. (%) (h-FXIIa [2]; inhibitor at RT during 72 hrs) | Res. Act. (%) (h-FXIIa [2]; inhibitor kept at −80° C.) | Ki (h-FXIIa [1]) |
| --- | --- | --- | --- | --- | --- | --- |
| CC[C@H](C)[C@@H]1NC(=O)[C@@H]2CSSC[C@H](NC(=O)[C@@H](NC(=O)[C@H](CCCNC(=N)N)NC(=O)[C@H](CCC(=O)O)NC(=O)[C@H](CCC(=O)O)NC(=O)[C@@H](N)Cc3c[nH]cn3)C(C)C)C(=O)N3CCC[C@H]3C(=O)N[C@@H](CCCCN)C(=O)N[C@@H]([C@@H](C)CC)C(=O)N[C@@H](CC(C)C)C(=O)N[C@@H](CCSC)C(=O)N[C@@H](CCC(=O)O)C(=O)N[C@H]3CSSC[C@H](NC1=O)C(=O)N[C@@H](CC(C)C)C(=O)N[C@@H](CCC(=O)O)C(=O)N[C@@H](Cc1c[nH]cn1)C(=O)NCC(=O)N[C@@H](Cc1ccc(O)cc1)C(=O)N[C@H](C(=O)NCC(=O)O)CSSC[C@H](NC(=O)[C@H](CC(=O)O)NC(=O)[C@H](CO)NC(=O)[C@H](CC(=O)O)NC(=O)[C@H](CCCCN)NC(=O)[C@H](CCCCN)NC3=O)C(=O)N[C@@H](CC(C)C)C(=O)N[C@@H](C)C(=O)N[C@@H](CCC(=O)O)C(=O)N2 [TICA5] (H-HEERVCPKILMECKKDSDCLAECICLEHGYCG-OH; disulfide 6-23, 13-25, 19-31 (inferred); N-terminus and C-terminus assumed) | 171000 nM | 152000 nM | 105% | 96% | 100% | – |
| CC[C@H](C)[C@@H]1NC(=O)[C@H](CCCNC(=N)N)NC(=O)[C@@H]2CCCN2C(=O)[C@@H](NC(=O)[C@@H](NC(=O)[C@H](CCCNC(=N)N)NC(=O)[C@H](C)NC(=O)[C@H](C)NC(=O)[C@H](C)N)C(C)C)CSSC[C@@H]2NC(=O)[C@H](CCC(=O)O)NC(=O)[C@H](C)NC(=O)[C@H](CC(C)C)NC(=O)[C@@H]3CSSC[C@@H](C(=O)NCC(=O)O)NC(=O)[C@H](Cc4ccc(O)cc4)NC(=O)CNC(=O)[C@H](Cc4c[nH]cn4)NC(=O)[C@H](CCC(=O)O)NC(=O)[C@H](CC(C)C)NC(=O)[C@H](CSSC[C@H](NC(=O)[C@H](CCCCN)NC(=O)[C@H](CCSC)NC(=O)[C@H](CC(C)C)NC1=O)C(=O)N[C@@H](CCCCN)C(=O)N[C@@H](CCCCN)C(=O)N[C@@H](CC(=O)O)C(=O)N[C@@H](CO)C(=O)N[C@@H](CC(=O)O)C(=O)N3)NC(=O)[C@H](C(C)C)NC2=O [AAA-TICA1] (H-AAARVCPRILMKCKKDSDCLAECVCLEHGYCG-OH; disulfide 6-23, 13-25, 19-31) | – | – | – | – | – | 104 nM |
| CC[C@H](C)[C@@H]1NC(=O)[C@H](CCCNC(=N)N)NC(=O)[C@@H]2CCCN2C(=O)[C@@H](NC(=O)[C@@H](NC(=O)[C@H](CCCNC(=N)N)NC(=O)[C@H](CCC(=O)O)NC(=O)[C@H](CCC(=O)O)NC(=O)[C@@H](N)Cc2c[nH]cn2)C(C)C)CSSC[C@@H]2NC(=O)[C@H](CCC(=O)O)NC(=O)[C@H](C)NC(=O)[C@H](CC(C)C)NC(=O)[C@@H]3CSSC[C@@H](C(=O)NCC(=O)O)NC(=O)[C@H](Cc4ccc(O)cc4)NC(=O)CNC(=O)[C@H](Cc4c[nH]cn4)NC(=O)[C@H](CCC(=O)O)NC(=O)[C@H](CC(C)C)NC(=O)[C@H](CSSC[C@H](NC(=O)[C@H](CCCCN)NC(=O)[C@H](CCSC)NC(=O)[C@H](CC(C)C)NC1=O)C(=O)N[C@@H](CCCCN)C(=O)N[C@@H](CCCCN)C(=O)N[C@@H](CC(=O)O)C(=O)N[C@@H](CO)C(=O)N[C@@H](CC(=O)O)C(=O)N3)NC(=O)[C@H](C(C)C)NC2=O [TICA3] (H-HEERVCPRILMKCKKDSDCLAECVCLEHGYCG-OH; disulfide 6-23, 13-25, 19-31 (inferred); N-terminus and C-terminus assumed) | 3090 nM | 2760 nM | 103% | 101% | 100% | – |
| CC[C@H](C)[C@@H]1NC(=O)[C@H](CCCNC(=N)N)NC(=O)[C@@H]2CCCN2C(=O)[C@@H](NC(=O)[C@@H](NC(=O)[C@@H](N)CCCNC(=N)N)C(C)C)CSSC[C@@H]2NC(=O)[C@H](CCC(=O)O)NC(=O)[C@H](C)NC(=O)[C@H](CC(C)C)NC(=O)[C@@H]3CSSC[C@@H](C(=O)NCC(=O)N[C@@H](C)C(=O)N[C@@H](C)C(=O)N[C@@H](C)C(=O)O)NC(=O)[C@H](Cc4ccc(O)cc4)NC(=O)CNC(=O)[C@H](Cc4c[nH]cn4)NC(=O)[C@H](CCC(=O)O)NC(=O)[C@H](CC(C)C)NC(=O)[C@H](CSSC[C@H](NC(=O)[C@H](CCCCN)NC(=O)[C@H](CCSC)NC(=O)[C@H](CC(C)C)NC1=O)C(=O)N[C@@H](CCCCN)C(=O)N[C@@H](CCCCN)C(=O)N[C@@H](CC(=O)O)C(=O)N[C@@H](CO)C(=O)N[C@@H](CC(=O)O)C(=O)N3)NC(=O)[C@H](C(C)C)NC2=O [TICA1-AAA] (H-RVCPRILMKCKKDSDCLAECVCLEHGYCGAAA-OH; disulfide 3-20, 10-22, 16-28) | – | – | – | – | – | 377 nM |
